*1 amine or outer side, *2 acyl side, *3 side chain or, on linkers, in order; H or OH if unused. Where a SMILES comes first, the peptide text is derived from it. Bridges are numbered along the chain shown (N, C = ends). Roman numbers before positions name the chains, in order. [ ]: non-standard residue; d: D form. The star is where a group is joined. ξ: configuration not given here. TATA = O=C(CC[*:1])N1CN(C(=O)CC[*:2])CN(C(=O)CC[*:3])C1; Dolaproine = CO[C@@H]([C@@H]1CCCN1)[C@@H](C)C(=O)O; X1 = CC[C@H](C)C(C(CC(=O)[*:2])OC)N(C)[*:1]; 1Nal = N[C@@H](Cc1cccc2ccccc12)C(=O)O; X3 = O=C(CCCC(=O)[*:2])NCCC(=O)[*:1]; PABC = O=C(OCc1ccc(N[*:1])cc1)[*:2]; Hyp = O=C(O)[C@@H]1C[C@@H](O)CN1; hArg = N=C(N)NCCCC[C@H](N)C(=O)O; Cit = NC(=O)NCCC[C@H](N)C(=O)O; X2 = CC(N*)[C@@H](O)c1ccccc1; ξNMeV = CNC(C(=O)O)C(C)C; ξV = CC(C)C(N)C(=O)O; Sar = CNCC(=O)O
Key:
Design in all cases: species or system Mus Musculus
HT-1376 xenograft = experiment: Example 9.3: in vivo efficacy in HT-1376 xenograft in CB17-SCID mice; conditions: for TGI / Tumor volume (TV) / Tumor volume / T/C: day 14; for Tumor volume trace over time: mean; for Tumor volume: mean ± SEM; for T/C: treated/control group average tumor volume
NCI-H292 xenograft [1] = experiment: Example 9.5: in vivo efficacy in NCI-H292 xenograft in Balb/c nude mice
NCI-H292 xenograft [2] = experiment: Example 1: in vivo efficacy in NCI-H292 xenograft (NSCLC model) in BALB/c nude mice; conditions: for Tumor volume: 1/3/5 mpk qw iv
Description: The major endpoint was to see if the tumor growth could be delayed or mice could be cured. Tumor volume was measured three times weekly in two dimensions using a caliper, and the volume was expressed in mm^3 using the formula: V=0.5 a×b^2 where a and b are the long and short diameters of the tumor, respectively. The tumor size was then used for calculations of T/C value. The T/C value (in percent) is an indication of antitumor effectiveness; T and C are the mean volumes of the treated and control groups, respectively, on a given day. TGI was calculated for each group using the formula: TGI (%)=[1−(Ti−T0)/(Vi−V0)]×100; Ti is the average tumor volume of a treatment group on a given day, T0 is the average tumor volume of the treatment group on the day of treatment start, Vi is the average tumor volume of the vehicle control group on the same day with Ti, and V0 is the average tumor volume of the vehicle group on the day of treatment start.
A one-way ANOVA was performed to compare tumor volume among groups, and when a significant F-statistics (a ratio of treatment variance to the error variance) was obtained, comparisons between groups were carried out with Games-Howell test. All data were analyzed using GraphPad Prism 5.0. P<0.05 was considered to be statistically significant.
The NCI-H292 tumor cells will be maintained in medium supplemented with 10% heat inactivated fetal bovine serum at 37° C. in an atmosphere of 5% CO2 in air. The tumor cells will be routinely subcultured twice weekly. The cells growing in an exponential growth phase will be harvested and counted for tumor inoculation.
Each mouse will be inoculated subcutaneously at the right flank with NCI-H292 tumor cells (10×10^6) in 0.2 ml of PBS for tumor development. The animals will be randomized and treatment will be started when the average tumor volume reaches approximately 158-406 mm^3.

CC[C@H](C)C(C(CC(=O)N1CCC[C@H]1[C@H](OC)[C@@H](C)C(=O)NC(C)[C@@H](O)c1ccccc1)OC)N(C)C(=O)[C@@H](NC(=O)C(C(C)C)N(C)C(=O)OCc1ccc(NC(=O)[C@H](CCCNC(N)=O)NC(=O)C(NC(=O)CCCC(=O)NCCC(=O)N(C)CC(=O)N(C)CC(=O)N(C)CC(=O)N(C)CC(=O)N(C)CC(=O)N(C)CC(=O)N(C)CC(=O)N(C)CC(=O)N(C)CC(=O)N(C)CC(=O)N[C@H]2CSCCC(=O)N3CN4CN(C3)C(=O)CCSC[C@H](NC(=O)[C@@H](CC(=O)O)NC(=O)[C@H](Cc3cccc5ccccc35)NC(=O)[C@@H]3CCCN3C2=O)C(=O)N[C@@H](CCSC)C(=O)N[C@@H](CCCCNC(=N)N)C(=O)N[C@@H](CC(=O)O)C(=O)N[C@@H](Cc2c[nH]c3ccccc23)C(=O)N[C@@H](CO)C(=O)N[C@@H]([C@@H](C)O)C(=O)N2CCC[C@H]2C(=O)N2C[C@H](O)C[C@H]2C(=O)N[C@@H](Cc2c[nH]c3ccccc23)C(=O)N[C@H](C(N)=O)CSCCC4=O)C(C)C)cc1)C(C)C (stereo partly drawn) [BCY8245, MMAE-PABC-Cit-Val-Glutaryl-BCY8234] (I: [Sar][Sar][Sar][Sar][Sar][Sar][Sar][Sar][Sar][Sar]CP[1Nal][dD]CM[hArg]DWSTP[Hyp]WC-NH2 / II: [ξV][Cit][PABC][ξNMeV]V[X1][Dolaproine]-X2; linker I:11-I:15-I:25 via TATA; linker I:N-II:N via X3) was tested, and the TGI (HT-1376 xenograft; 3 mg/kg biw) was 72.3%, the “Tumor volume (TV)” value (HT-1376 xenograft; 3 mg/kg biw) was 407 mm^3 and the TGI (HT-1376 xenograft; 3 mg/kg qw) was 50.9%. The “Tumor volume (TV)” value (HT-1376 xenograft; 3 mg/kg qw) was 603 mm^3, the TGI (HT-1376 xenograft; 5 mg/kg qw) was 66.0% and the “Tumor volume (TV)” value (HT-1376 xenograft; 5 mg/kg qw) was 465 mm^3. For the same compound, the “Tumor volume trace over time” value (HT-1376 xenograft; 3 mpk, biw, iv, day 0 after the start of treatment) was 154 mm^3, the “Tumor volume trace over time” value (HT-1376 xenograft; 3 mpk, biw, iv, day 2 after the start of treatment) was 248 mm^3 and the “Tumor volume trace over time” value (HT-1376 xenograft; 3 mpk, biw, iv, day 5 after the start of treatment) was 203 mm^3. For the same compound, the “Tumor volume trace over time” value (HT-1376 xenograft; 3 mpk, biw, iv, day 7 after the start of treatment) was 273 mm^3, the “Tumor volume trace over time” value (HT-1376 xenograft; 3 mpk, biw, iv, day 9 after the start of treatment) was 356 mm^3 and the “Tumor volume trace over time” value (HT-1376 xenograft; 3 mpk, biw, iv, day 12 after the start of treatment) was 391 mm^3. For the same compound, the TGI (HT-1376 xenograft; 3 mpk, biw, iv) was 72.3%, the “Tumor volume” value (HT-1376 xenograft; 3 mpk, biw, iv) was 407 ± 53 mm^3 and the T/C (HT-1376 xenograft; 3 mpk, biw, iv) was 38.1%. The “Tumor volume trace over time” value (HT-1376 xenograft; 3 mpk, biw, iv, day 14 after the start of treatment) was 407 mm^3, the “Tumor volume trace over time” value (HT-1376 xenograft; 3 mpk, qw, iv, day 0 after the start of treatment) was 153 mm^3 and the “Tumor volume trace over time” value (HT-1376 xenograft; 3 mpk, qw, iv, day 2 after the start of treatment) was 254 mm^3. The “Tumor volume trace over time” value (HT-1376 xenograft; 3 mpk, qw, iv, day 5 after the start of treatment) was 298 mm^3, the “Tumor volume trace over time” value (HT-1376 xenograft; 3 mpk, qw, iv, day 7 after the start of treatment) was 398 mm^3 and the “Tumor volume trace over time” value (HT-1376 xenograft; 3 mpk, qw, iv, day 9 after the start of treatment) was 468 mm^3. The “Tumor volume trace over time” value (HT-1376 xenograft; 3 mpk, qw, iv, day 12 after the start of treatment) was 502 mm^3, the TGI (HT-1376 xenograft; 3 mpk, qw, iv) was 50.9% and the “Tumor volume” value (HT-1376 xenograft; 3 mpk, qw, iv) was 603 ± 76 mm^3. The T/C (HT-1376 xenograft; 3 mpk, qw, iv) was 56.4%, the “Tumor volume trace over time” value (HT-1376 xenograft; 3 mpk, qw, iv, day 14 after the start of treatment) was 603 mm^3 and the “Tumor volume trace over time” value (HT-1376 xenograft; 5 mpk, qw, iv, day 0 after the start of treatment) was 153 mm^3. The “Tumor volume trace over time” value (HT-1376 xenograft; 5 mpk, qw, iv, day 2 after the start of treatment) was 237 mm^3, the “Tumor volume trace over time” value (HT-1376 xenograft; 5 mpk, qw, iv, day 5 after the start of treatment) was 228 mm^3 and the “Tumor volume trace over time” value (HT-1376 xenograft; 5 mpk, qw, iv, day 7 after the start of treatment) was 317 mm^3. For the same compound, the “Tumor volume trace over time” value (HT-1376 xenograft; 5 mpk, qw, iv, day 9 after the start of treatment) was 394 mm^3, the “Tumor volume trace over time” value (HT-1376 xenograft; 5 mpk, qw, iv, day 12 after the start of treatment) was 438 mm^3 and the TGI (HT-1376 xenograft; 5 mpk, qw, iv) was 66.0%. For the same compound, the “Tumor volume” value (HT-1376 xenograft; 5 mpk, qw, iv) was 465 ± 33 mm^3, the T/C (HT-1376 xenograft; 5 mpk, qw, iv) was 43.5% and the “Tumor volume trace over time” value (HT-1376 xenograft; 5 mpk, qw, iv, day 14 after the start of treatment) was 465 mm^3. The TGI (NCI-H292 xenograft [1]; 3 mg/kg biw, day 14) was 112.2%, the “Tumor volume (TV)” value (NCI-H292 xenograft [1]; 3 mg/kg biw, day 14) was 65 mm^3 and the TGI (NCI-H292 xenograft [1]; 3 mg/kg qw, day 14) was 101.4%. The “Tumor volume (TV)” value (NCI-H292 xenograft [1]; 3 mg/kg qw, day 14) was 149 mm^3, the TGI (NCI-H292 xenograft [1]; 5 mg/kg qw, day 14) was 109.8% and the “Tumor volume (TV)” value (NCI-H292 xenograft [1]; 5 mg/kg qw, day 14) was 83 mm^3. For the same compound, the Tumor volume (NCI-H292 xenograft [1]; 3 mpk, biw, day 0 after the start of treatment) was 162 mm^3, the Tumor volume (NCI-H292 xenograft [1]; 3 mpk, biw, day 2) was 243 mm^3 and the Tumor volume (NCI-H292 xenograft [1]; 3 mpk, biw, day 4) was 211 mm^3. For the same compound, the Tumor volume (NCI-H292 xenograft [1]; 3 mpk, biw, day 7) was 101 mm^3, the Tumor volume (NCI-H292 xenograft [1]; 3 mpk, biw, day 9) was 100 mm^3 and the Tumor volume (NCI-H292 xenograft [1]; 3 mpk, biw, day 11) was 87 mm^3. For the same compound, the T/C (NCI-H292 xenograft [1]; 3 mpk, biw, day 14) was 6.9%, the TGI (NCI-H292 xenograft [1]; 3 mpk, biw, day 14) was 112.2% and the “Tumor Volume (Mean ± SEM)” value (NCI-H292 xenograft [1]; 3 mpk, biw, day 14) was 65 ± 3 mm^3. For the same compound, the Tumor volume (NCI-H292 xenograft [1]; 3 mpk, biw, day 14) was 65 mm^3, the Tumor volume (NCI-H292 xenograft [1]; 3 mpk, qw, day 0 after the start of treatment) was 160 mm^3 and the Tumor volume (NCI-H292 xenograft [1]; 3 mpk, qw, day 2) was 220 mm^3. It also gave a Tumor volume (NCI-H292 xenograft [1]; 3 mpk, qw, day 4) of 266 mm^3, a Tumor volume (NCI-H292 xenograft [1]; 3 mpk, qw, day 7) of 218 mm^3 and a Tumor volume (NCI-H292 xenograft [1]; 3 mpk, qw, day 9) of 167 mm^3. The Tumor volume (NCI-H292 xenograft [1]; 3 mpk, qw, day 11) was 161 mm^3, the T/C (NCI-H292 xenograft [1]; 3 mpk, qw, day 14) was 15.8% and the TGI (NCI-H292 xenograft [1]; 3 mpk, qw, day 14) was 101.4%. The “Tumor Volume (Mean ± SEM)” value (NCI-H292 xenograft [1]; 3 mpk, qw, day 14) was 149 ± 43 mm^3, the Tumor volume (NCI-H292 xenograft [1]; 3 mpk, qw, day 14) was 149 mm^3 and the Tumor volume (NCI-H292 xenograft [1]; 5 mpk, qw, day 0 after the start of treatment) was 160 mm^3. For the same compound, the Tumor volume (NCI-H292 xenograft [1]; 5 mpk, qw, day 2) was 176 mm^3, the Tumor volume (NCI-H292 xenograft [1]; 5 mpk, qw, day 4) was 191 mm^3 and the Tumor volume (NCI-H292 xenograft [1]; 5 mpk, qw, day 7) was 105 mm^3. It also gave a Tumor volume (NCI-H292 xenograft [1]; 5 mpk, qw, day 9) of 82 mm^3, a Tumor volume (NCI-H292 xenograft [1]; 5 mpk, qw, day 11) of 91 mm^3 and a T/C (NCI-H292 xenograft [1]; 5 mpk, qw, day 14) of 8.8%. The TGI (NCI-H292 xenograft [1]; 5 mpk, qw, day 14) was 109.8%, the “Tumor Volume (Mean ± SEM)” value (NCI-H292 xenograft [1]; 5 mpk, qw, day 14) was 83 ± 8 mm^3 and the Tumor volume (NCI-H292 xenograft [1]; 5 mpk, qw, day 14) was 83 mm^3. The “tumor response (in words)” value (NCI-H292 xenograft [1]; mouse, in vivo) was “causes regression of the tumor”, the “antitumor activity (in words)” value (NCI-H292 xenograft [2]; 1 mg/kg qw) was “didn't produce significant antitumor activity” and the Tumor volume (NCI-H292 xenograft [2]; day 0) was 404 ± 65 mm^3. The Tumor volume (NCI-H292 xenograft [2]; day 2) was 391 ± 42 mm^3, the Tumor volume (NCI-H292 xenograft [2]; day 4) was 542 ± 14 mm^3 and the Tumor volume (NCI-H292 xenograft [2]; day 7) was 721 ± 136 mm^3. It also gave a Tumor volume (NCI-H292 xenograft [2]; day 9) of 762 ± 115 mm^3, a Tumor volume (NCI-H292 xenograft [2]; day 11) of 607 ± 95 mm^3 and a Tumor volume (NCI-H292 xenograft [2]; day 14) of 614 ± 89 mm^3.
